Test results reported in ChEMBL document CHEMBL5244224, “Antioxidant Activity of Natural Allylpolyalkoxybenzene Plant Essential Oil Constituents” (J Nat Prod, 2019).
Activity calls are given as the source filed them. The calls are words filed in the database; no cut-off is given here.

Columns and labels:
[1] = Antioxidant activity assessed as DPPH radical scavenging capacity at 0.1 mM incubated for 30 mins under dark condition by absorbance based assay; format: functional
[2] = test system: Erythrocyte; assay: Antioxidant activity in mouse RBC assessed as inhibition of H2O2-induced hemolytic activity at 0.1 mM preincubated with compound for 30 mins followed by H2O2 addition and measured after 5 hrs; format: functional, cell-based; conditions: time 5.5 hrs
[3] = Antioxidant activity assessed as DPPH radical scavenging capacity at 1 mM incubated for 30 mins under dark condition by absorbance based assay; format: functional
[4] = organism: Mus musculus; assay: Antioxidant activity in mouse brain homogenate assessed as inhibition of FeSO4/ascorbic acid induced lipid autoxidation by measuring reduction in TBARS formation at 1 mM preincubated with compound for 30 mins followed by FeSO4/ascorbic acid addition and measured after 1 hrs by TBARS assay; format: functional; conditions: time 1.5 hrs
[5] = organism: Mus musculus; assay: Antioxidant activity in mouse brain homogenate assessed as inhibition of FeSO4/ascorbic acid induced lipid autoxidation by measuring reduction in TBARS formation at 0.1 mM preincubated with compound for 30 mins followed by FeSO4/ascorbic acid addition and measured after 1 hrs by TBARS assay; format: functional; conditions: time 1.5 hrs
[6] = test system: Erythrocyte; assay: Antioxidant activity in H2O2-induced mouse RBC cells assessed as inhibition of ferryl-hemoglobin formation at 0.01 mM preincubated with compound for 30 mins followed by H2O2 addition and measured after 5 hrs; format: functional, cell-based; conditions: time 5.5 hrs
[7] = test system: Erythrocyte; assay: Antioxidant activity in mouse RBC assessed as inhibition of H2O2-induced hemolytic activity at 0.01 mM preincubated with compound for 30 mins followed by H2O2 addition and measured for 5 hrs; format: functional, cell-based; conditions: time 5.5 hrs
[8] = test system: Erythrocyte; assay: Antioxidant activity in H2O2-induced mouse RBC cells assessed as inhibition of methemoglobin formation at 0.01 mM preincubated with compound for 30 mins followed by H2O2 addition and measured after 5 hrs; format: functional, cell-based; conditions: time 5.5 hrs
[9] = test system: Erythrocyte; assay: Antioxidant activity in mouse RBC assessed as inhibition of H2O2-induced hemolytic activity at 0.01 mM preincubated with compound for 30 mins followed by H2O2 addition and measured at 1 to 3 hrs; format: functional, cell-based; conditions: time 1.5-3.5 hrs
[10] = organism: Mus musculus; assay: Antioxidant activity in mouse brain homogenate assessed as inhibition of FeSO4/ascorbic acid induced lipid autoxidation by measuring reduction in TBARS formation at 0.5 mM preincubated with isopropanol for 30 mins followed by compound addition for 30 mins and measured 1 hrs after FeSO4/ascorbic acid addition by TBARS assay; format: functional; conditions: time 1.5 hrs
[11] = test system: Erythrocyte; assay: Antioxidant activity in H2O2-induced mouse RBC assessed as inhibition of lipid peroxidation by measuring MDA formation at 0.01 mM preincubated with compound for 30 mins followed by H2O2 addition and measured after 4 hrs by spectrophotometric analysis; format: functional, cell-based; conditions: time 4.5 hrs
[12] = Hemolytic activity in mouse RBC assessed as hemolysis at 0.1 mM measured after 5 hrs; format: toxicity, cell-based, Erythrocyte; conditions: mouse red blood cells, read-out: Activity
[13] = test system: Erythrocyte; assay: Antioxidant activity in H2O2-induced mouse RBC cells assessed as reduction in metHB/oxyHB ratio at 0.01 mM preincubated with compound for 30 mins followed by H2O2 addition and measured after 5 hrs; format: functional, cell-based; conditions: time 5.5 hrs

Compound | Activity [1] | Activity [2] | Activity [3] | Activity [4] | Activity [5] | Activity [6] | Activity [7] | Activity [8] | Activity [9] | Activity [10] | Activity [11] | hemolysis at 5 h, 100 µM [12] | Activity [13]
C=CCc1ccc(OC)cc1 | 0.25% | inactive | 1.16% | Active | inactive | Active | Active | Active |  |  |  |  | 
C=CCc1cc(OC)c(OC)c(OC)c1OC | 0.1% | inactive | 1.47% | Active | inactive | Active | Active | Active |  |  |  |  | 
C=CCc1c(O)c(OC)c2c(c1OC)OCO2 | 88.9% |  | 90.2% | Active | Active |  | Active |  | Active | inactive | Active |  | 
C=CCc1ccc2c(c1)OCO2 [SAFROLE] | 1.26% | inactive | 10.6% | Active | inactive | Active | Active | Active |  |  |  | ≤ 10% | 
C=CCc1cc(OC)c2c(c1)OCO2 [ELEMICIN] | 1.31% | Active | 5.25% | Active | Active | Active | Active | Active |  | inactive |  |  | 
C=CCc1ccccc1 | 1.01% | inactive | 4.29% | Active | inactive | Active | Active | Active |  |  |  |  | 
C=CCc1c(OC)c(OC)c2c(c1OC)OCO2 | 0.91% |  | 4.3% | Active | Active |  | inactive |  |  | inactive | inactive |  | 
Cc1cc(C(C)(C)C)c(O)c(C(C)(C)C)c1 | 72% |  |  |  | Active | Active |  | Active |  |  | Active |  | Active
C=CCc1cc2c(c(OC)c1OC)OCO2 [DILLAPIOLE] | 0.38% | Active | 3.94% | Active | Active | Active | Active | Active |  | inactive |  | ≤ 10% | Active
Cc1c(C)c2c(c(C)c1O)CCC(C)(C(=O)O)O2 (stereo unspecified) | 94.9% |  |  |  | Active |  |  |  |  |  |  |  | 
C=CCc1cc(OC)c2c(c1OC)OCO2 [APIOL] | 0.05% | inactive | 0.3% | Active | Active | Active | Active | Active |  | inactive |  | ≤ 10% | 
